Results reported in ChEMBL document CHEMBL4257522, “Synthesis and preliminary anti-inflammatory and anti-bacterial evaluation of some diflunisal aza-analogs” (Medchemcomm, 2018).
Activity calls are given as the source filed them. The rule behind the calls is not given here.

Legend:
[1] = tested on: Macrophage cell line; assay: Antiinflammatory activity in human PBMC-differentiated macrophages assessed as lowest concentration required to show at least 25% inhibition of LPS-induced prostaglandin production measured after 24 hrs by ELISA; type: functional
[2] = tested on: Macrophage cell line; assay: Induction of IL-8 production in human PBMC-differentiated macrophages after 24 hrs by ELISA; type: cell-based
[3] = tested on: Klebsiella pneumoniae; assay: Potentiation of ciprofloxacin-induced antibacterial activity against Klebsiella pneumoniae ATCC 13883 assessed as minimum modulatory concentration up to 32 uM measured after 16 hrs in presence of MIC/4 ciprofloxacin; type: functional; conditions: ATCC 13883, 16 h, read-out: MEC
[4] = tested on: Klebsiella pneumoniae; assay: Potentiation of tetracycline-induced antibacterial activity against Klebsiella pneumoniae ATCC 13883 assessed as minimum modulatory concentration up to 32 uM measured after 16 hrs in presence of MIC/4 tetracycline; type: functional; conditions: ATCC 13883, 16 h, read-out: MEC
[5] = tested on: Streptococcus pyogenes; assay: Toxicity in Streptococcus pyogenes ATCC 14289 up to 32 uM measured after 16 hrs; type: organism-based
[6] = tested on: Macrophage cell line; assay: Antiinflammatory activity in human PBMC-differentiated macrophages assessed as lowest concentration required to show at least 25% inhibition of LPS-induced TNFalpha production measured after 24 hrs by ELISA; type: functional
[7] = tested on: Pseudomonas aeruginosa; assay: Potentiation of geneticin-induced antibacterial activity against Pseudomonas aeruginosa ATCC BAA-2108 assessed as minimum modulatory concentration up to 32 uM measured after 16 hrs in presence of MIC/4 geneticin; type: functional; conditions: ATCC BAA-2108, 16 h, read-out: MEC
[8] = tested on: Macrophage cell line; assay: Antiinflammatory activity in human PBMC-differentiated macrophages assessed as lowest concentration required to show at least 25% inhibition of LPS-induced IL-1beta production measured after 24 hrs by ELISA; type: functional
[9] = tested on: Pseudomonas aeruginosa; assay: Potentiation of methicillin-induced antibacterial activity against Pseudomonas aeruginosa ATCC BAA-2108 assessed as minimum modulatory concentration up to 32 uM measured after 16 hrs in presence of MIC/4 methicillin; type: functional; conditions: ATCC BAA-2108, 16 h, read-out: MEC
[10] = tested on: Escherichia coli; assay: Potentiation of methicillin-induced antibacterial activity against Escherichia coli ATCC 43894 assessed as minimum modulatory concentration up to 32 uM measured after 16 hrs in presence of MIC/4 methicillin; type: functional; conditions: ATCC 43894, 16 h, read-out: MEC
[11] = tested on: Escherichia coli; assay: Potentiation of tetracycline-induced antibacterial activity against Escherichia coli ATCC 43894 assessed as minimum modulatory concentration up to 32 uM measured after 16 hrs in presence of MIC/4 tetracycline; type: functional; conditions: ATCC 43894, 16 h, read-out: MEC
[12] = tested on: Macrophage cell line; assay: Antiinflammatory activity in human PBMC-differentiated macrophages assessed as inhibition of LPS-induced TNFalpha production at 0.01 to 10 uM measured after 24 hrs by ELISA; type: functional, cell-based
[13] = tested on: Macrophage cell line; assay: Antiinflammatory activity in human PBMC-differentiated macrophages assessed as inhibition of LPS-induced prostaglandin production at 0.01 to 10 uM measured after 24 hrs by ELISA; type: functional, cell-based
[14] = tested on: Macrophage cell line; assay: Antiinflammatory activity in human PBMC-differentiated macrophages assessed as inhibition of LPS-induced IL-1beta production at 0.01 to 10 uM measured after 24 hrs by ELISA; type: functional, cell-based
[15] = tested on: Macrophage cell line; assay: Antiinflammatory activity in human PBMC-differentiated macrophages assessed as lowest concentration required to show at least 25% inhibition of LPS-induced IL-8 production measured after 24 hrs by ELISA; type: functional

Row | Compound | Activity [1] | Activity [2] | minimal effective concentration [3] | minimal effective concentration [4] | Activity [5] | Activity [6] | minimal effective concentration [7] | Activity [8] | minimal effective concentration [9] | minimal effective concentration [10] | minimal effective concentration [11] | inhibition [12] | inhibition [13] | inhibition [14] | Activity [15]
1 | O=C(O)c1cc(-c2ccccc2)nc(-c2ccccc2)c1O | 10 µM | Non-Toxic | > 32 µM | > 32 µM | Non-Toxic | 10 µM | > 32 µM | 10 µM | 8 µM | > 32 µM | > 32 µM | – | – | – | –
2 | Cc1cc(C(=O)O)c(O)c(Cc2ccccc2)n1 | – | Non-Toxic | > 32 µM | > 32 µM | Non-Toxic | – | > 32 µM | – | > 32 µM | > 32 µM | > 32 µM | inactive | inactive | inactive | –
3 | O=C(O)c1cc(-c2ccc(F)cc2F)ccc1O [DIFLUNISAL] | 0.1 µM | Non-Toxic | > 32 µM | > 32 µM | Non-Toxic | – | > 32 µM | – | > 32 µM | > 32 µM | > 32 µM | inactive | – | inactive | –
4 | O=C(O)c1cc(-c2ccccc2)ncc1O | – | Non-Toxic | > 32 µM | > 32 µM | Non-Toxic | – | > 32 µM | – | > 32 µM | > 32 µM | > 32 µM | inactive | inactive | inactive | –
5 | O=C(O)c1ccnc(Cc2ccccc2)c1O | – | Non-Toxic | > 32 µM | > 32 µM | Non-Toxic | – | > 32 µM | – | > 32 µM | > 32 µM | > 32 µM | inactive | inactive | inactive | –
6 | C[n+]1ccc(C(=O)[O-])c(O)c1Cc1ccccc1 | – | Non-Toxic | > 32 µM | > 32 µM | Non-Toxic | – | > 32 µM | – | > 32 µM | > 32 µM | > 32 µM | inactive | inactive | inactive | –
7 | O=C(O)c1ccnc(-c2ccccc2)c1O | – | Non-Toxic | > 32 µM | > 32 µM | Non-Toxic | 10 µM | > 32 µM | 10 µM | 8 µM | > 32 µM | > 32 µM | – | inactive | – | 10 µM
8 | O=C(O)c1cc(O)c(-c2ccccc2)nc1-c1ccccc1 | – | Non-Toxic | > 32 µM | > 32 µM | Non-Toxic | 10 µM | > 32 µM | 10 µM | 16 µM | > 32 µM | > 32 µM | – | inactive | – | 10 µM
9 | Cc1nc(-c2ccccc2)cc(C(=O)O)c1O | – | Non-Toxic | > 32 µM | > 32 µM | Non-Toxic | – | > 32 µM | – | > 32 µM | > 32 µM | > 32 µM | inactive | inactive | inactive | –
10 | C[n+]1cc(O)c(C(=O)[O-])cc1-c1ccccc1 | – | Non-Toxic | > 32 µM | > 32 µM | Non-Toxic | – | > 32 µM | – | > 32 µM | > 32 µM | > 32 µM | inactive | inactive | inactive | –
11 | COc1cccc(-c2cc(C(=O)[O-])c(O)c[n+]2C)c1 | – | Non-Toxic | > 32 µM | > 32 µM | Non-Toxic | – | > 32 µM | – | > 32 µM | > 32 µM | > 32 µM | inactive | inactive | inactive | –
12 | COc1cccc(-c2cc(C(=O)O)c(O)cn2)c1 | – | Non-Toxic | > 32 µM | > 32 µM | Non-Toxic | – | > 32 µM | – | > 32 µM | > 32 µM | > 32 µM | inactive | inactive | inactive | –
13 | O=C(O)c1cnc(-c2ccccc2)c(O)c1 | – | Non-Toxic | > 32 µM | > 32 µM | Non-Toxic | – | > 32 µM | – | 16 µM | > 32 µM | > 32 µM | inactive | inactive | inactive | –
14 | Cc1nc(-c2ccccc2)c(O)cc1C(=O)O | – | Non-Toxic | > 32 µM | > 32 µM | Non-Toxic | 10 µM | > 32 µM | 10 µM | 16 µM | > 32 µM | > 32 µM | – | inactive | – | –
15 | O=C(O)c1cc(-c2ccc(F)cc2F)ncc1O | 10 µM | Non-Toxic | > 32 µM | > 32 µM | Non-Toxic | 1 µM | > 32 µM | 1 µM | 8 µM | > 32 µM | > 32 µM | – | – | – | 1 µM
16 | O=C(O)c1cc(O)cnc1-c1ccccc1 | – | Non-Toxic | > 32 µM | > 32 µM | Non-Toxic | 10 µM | > 32 µM | 10 µM | 16 µM | > 32 µM | > 32 µM | – | inactive | – | 10 µM
17 | O=C(O)c1cnc2c(F)cc(F)cc2c1O | 10 µM | Non-Toxic | > 32 µM | > 32 µM | Non-Toxic | 1 µM | > 32 µM | 1 µM | 8 µM | > 32 µM | > 32 µM | – | – | – | 10 µM
